Results: patent publication US4625016A, “Collagen inhibiting compositions and processes for manufacturing and using same” (University of Medicine and Dentistry of New Jersey, priority 1983, dated 1986)

Tests used:
[1] = system: normal human skin fibroblasts; assay: Attachment and growth of human skin fibroblasts in plastic culture flasks (assay of collagen synthesis); format: cell-based
Excerpt: The principle of the test system is that when collagen-producing cells, such as normal skin fibroblasts are introduced into a plastic flask containing a nutrient medium, the cells attach to the surface of the flask and grow. However, firm attachment of normal fibroblasts to the surface of the flask requires that the cells first synthesize a "pad" comprised of collagen fibers and several other materials through which the collagen producing cells attach to the plastic surface. If synthesis of normal collagen fibers is prevented, the collagen-producing cells, such as the normal skin fibroblasts, will not attach and therefore will not grow. […] The manner in which cis-4-hydroxy-L-proline produces these effects has been disclosed in 336 Biochimica et Biophysica Acta 234, (1974); 174 Archives of Biochemistry and Biophysics 381 (1976); 226 Nature 63 (1977); and 272 Nature 622 (1978).
None of the three polymeric compositions are soluble in water and are consequently dissolved in 50% acetic acid and water. The solution is placed dropwise on a microscopic coverslip and the solvent evaporated with warm air from a hair dryer. The coverslip, coated with the composition, is then placed in a plastic culture flask (75 cm^2; Falcon). From 5×10^5 to 10.5×10^5 normal human fibroblasts in 2 ml of cell culture medium are added to the flask. The flask is incubated at 37° C. in 5% carbon dioxide and 95% air for 3 to 5 days, and the number of cells in the flask counted. Control sample contained microscopic coverslips treated with an equal volume of solvent and air-dried.

KB cells = conditions: as disclosed in 266 Nature 63 (1977); cited from earlier work

## O=C(O)[C@@H]1C[C@H](O)CN1 [cis-4-Hydroxy-L-proline, cis-4-hydroxy-L-proline]
[1]; Expt. 1, dosage level 250 μg/ml, initial 5.0 × 10^5, 3 to 5 days, None: 67
  Cells per flask, Final: < 1 × 10^5
[1]; Expt. 2, dosage level 100 μg/ml, initial 10.3 × 10^5, None: 98
  Cells per flask, Final: 2.2 × 10^5
[1]; Expt. 3, dosage level 50 μg/ml, initial 7.0 × 10^5, None: 56
  Cells per flask, Final: 12 × 10^5
[1]; Expt. 3, dosage level 150 μg/ml, initial 7.0 × 10^5, None: 56
  Cells per flask, Final: 1.3 × 10^5
[1]; no dose stated
  Attachment and growth of normal fibroblasts (in words): prevents attachment and growth
KB cells
  Growth of cells which do not produce collagen (in words): not inhibited
